According to patent US10966996B2, “Glechoma longitube extract, preparation method for same, and use thereof in sugar reduction, weight loss, and lipid reduction” (SHANGHAI INSTITUTE OF MATERIA MEDICA CHINESE ACADEMY OF …, priority 2014, dated 2021):

Legend:
Format in all cases: biochemical
hDGAT1 = target: T1, hDGAT1 (Homo sapiens, UniProt O75907); assay: inhibitory activity against hDGAT1 (CPM fluorescence)
T1 construct: made in house; host or cells: insect cells
T1 sequence (O75907 1-488): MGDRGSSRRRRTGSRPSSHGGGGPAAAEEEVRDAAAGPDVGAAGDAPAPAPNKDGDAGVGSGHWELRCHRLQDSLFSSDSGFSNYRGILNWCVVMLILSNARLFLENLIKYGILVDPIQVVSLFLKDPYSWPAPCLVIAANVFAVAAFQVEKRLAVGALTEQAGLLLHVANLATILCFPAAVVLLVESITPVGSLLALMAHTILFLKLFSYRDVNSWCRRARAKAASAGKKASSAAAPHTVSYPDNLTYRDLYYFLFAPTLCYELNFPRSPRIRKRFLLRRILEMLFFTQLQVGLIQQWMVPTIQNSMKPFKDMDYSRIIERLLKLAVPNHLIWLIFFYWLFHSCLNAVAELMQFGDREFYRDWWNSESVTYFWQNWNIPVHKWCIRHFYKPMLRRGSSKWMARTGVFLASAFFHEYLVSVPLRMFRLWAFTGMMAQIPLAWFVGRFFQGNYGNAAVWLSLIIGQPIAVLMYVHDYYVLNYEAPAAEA
Protocol: Experimental method: (1) the effect of the extract of Glechoma longituba (Nakai) Kupr., LQC-H-1, on serum triglyceride level was evaluated in acute hypertriglyceridemic mouse model; 6-week old male C57BL/KsJ mice (Shanghai Slac Laboratory Animal Company), 8 for each group, weight of 20±2 g, were fed according to SPF grade operation procedure and fasted overnight for 16 hours prior to experiment. Compounds of different concentrations were intragastric administrated to each administration group of mice, respectively. Equal volume of water was given to control group and blank group of mice. 30 mins later, 2 g/kg olive oil was intragastric administrated to administration group and control group of mice, while equal volume of water was given to blank group of mice. 2 hours later, blood was collected from orbital vein of each group of mice for the separation of serum, and concentration of triglyceride in the serum was measured; (2) inhibitory activity of the individual compounds separated from the extract of Glechoma longituba (Nakai) Kupr., LQC-H-1, against diacylglycerol acyltransferase (DGAT): human derived DGAT1 obtained by expression and purification with insect cells were pre-incubated together with the compounds, substrate diacylglycerol was added to initiate the reaction in the presence of coenzyme A, fluorescence signal generated by the combination of produced sulfydryl and CPM was measured, and the inhibitory activity of the compound against DGAT was calculated according to the following formula: Inhibition rate %=(OD blank−OD compound)/(OD blank−OD negative control)*100%
(§1) OD compound, OD blank, and OD negative control represented the fluorescence values from a compound well, a blank well, and a negative control well free of DGAT1 enzyme, and the concentrations of the compounds when the enzyme activity inhibition rate (%) reached 50% were set as IC50 value; (3) inhibitory activity of the individual compounds separated from the extract of Glechoma longituba (Nakai) Kupr., LQC-H-1, against pancrelipase: substrate p-Nitrophenyl acetate (Sigma, USA) was formulated to 1.35 mM with phosphate buffer (25 mM, pH 6.8); porcine pancrelipase (Sigma) was formulated to 10 mg/ml with phosphate buffer; brominated eneyne compounds were formulated to solutions of different concentrations with phosphate buffer. Then, 50 μl of 1.35 mM p-Nitrophenyl acetate (Sigma, USA) solution and 10 μl of test compounds of different concentrations were sequentially added into a 96-well plate and pre-incubated at 37° C. for 5 mins. Finally, 50 μl of 10 mg/ml pancrelipase (EC 3.1.1.3, Sigma, USA) was added and mixed. The reaction proceeded at 37° C. for further 20 mins Absorbance of each well was measured at 492 nm. The inhibition rates (%) of the test samples against pancrelipase were calculated based on the absorbance at 492 nm. The concentrations of the compounds when then enzyme activity inhibition rate (%) reached 50% was set as IC50 value. The inhibition rate (%) could be calculated according to the following formula: Inhibition rate (%)=[(A−B)−(C−D)]/(A−B)×100

glucose oxidase (GOX) = target: T2, glucose oxidase (GOX) (Homo sapiens, UniProt Q9UJM8); assay: inhibitory activity against glucose oxidase (GOX), enzyme coupling method with glycolic acid substrate; parameters: Vmax: unit not given here
T2 sequence (Q9UJM8 1-370): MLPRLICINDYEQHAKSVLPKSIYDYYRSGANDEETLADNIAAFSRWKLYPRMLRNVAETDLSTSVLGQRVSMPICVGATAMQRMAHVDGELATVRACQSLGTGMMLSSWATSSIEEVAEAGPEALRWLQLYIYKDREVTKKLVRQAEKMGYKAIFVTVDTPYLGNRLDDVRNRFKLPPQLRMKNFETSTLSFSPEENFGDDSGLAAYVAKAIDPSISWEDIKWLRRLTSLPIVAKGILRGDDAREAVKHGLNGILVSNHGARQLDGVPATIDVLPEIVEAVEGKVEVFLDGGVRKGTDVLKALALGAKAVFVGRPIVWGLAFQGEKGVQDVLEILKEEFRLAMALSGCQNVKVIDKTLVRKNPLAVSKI
Protocol: Mechanism of experiment: enzyme coupling method utilizes peroxidase (POD) and substrates thereof to react with generated H2O2 to produce colored products so as to determine the catalytic reaction rate of glucose oxidase. POD catalyzes H2O2 to react with phenol and 4-amino antipyrine to produce brown-red quinone substances.
Experimental method: reagents were added according to the table below; the reaction was immediately initiated upon the final addition of substrate glycolic acid; the kinetic course of the reaction was detected by microplate reader; the enzyme activity was represented by Vmax, maximum reaction velocity.
The measurement results were fitted by Graphpad Prism 5.0 to calculate IC50 values.

porcine pancrelipase = target: T3, porcine pancrelipase (Sus scrofa, UniProt P00591); assay: inhibitory activity against pancrelipase (p-Nitrophenyl acetate substrate); settings: 10 μM
T3 construct: purchased Sigma
T3 sequence (P00591 1-450): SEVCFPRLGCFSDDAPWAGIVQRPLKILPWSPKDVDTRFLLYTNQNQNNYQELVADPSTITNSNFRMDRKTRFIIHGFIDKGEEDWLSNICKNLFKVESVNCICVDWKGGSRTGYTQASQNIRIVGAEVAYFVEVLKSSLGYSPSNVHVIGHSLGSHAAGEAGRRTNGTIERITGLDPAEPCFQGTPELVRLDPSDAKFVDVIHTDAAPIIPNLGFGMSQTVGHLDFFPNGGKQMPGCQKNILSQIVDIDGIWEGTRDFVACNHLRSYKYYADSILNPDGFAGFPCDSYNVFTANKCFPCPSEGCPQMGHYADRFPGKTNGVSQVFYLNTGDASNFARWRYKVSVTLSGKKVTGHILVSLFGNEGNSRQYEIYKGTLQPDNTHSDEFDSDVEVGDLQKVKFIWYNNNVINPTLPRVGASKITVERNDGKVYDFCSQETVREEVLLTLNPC
Excerpt: as §1
In the above formula, A, B, C, and D represented the absorbance of a blank well after the reaction, the absorbance of a blank well prior to the reaction, the absorbance of a sample well after the reaction, and the absorbance of a sample well prior to the reaction.

O=C(Nc1ccccc1)Nc1ccc(-c2ccc(C(=O)[C@@H]3CCC[C@H]3C(=O)O)cc2)cc1 [A 922500, reference compound]
Inhibition rate (%) (10 μM) against hDGAT1 (hDGAT1; 10 μM): 83.36% | Inhibition rate (%) (50 μM) against hDGAT1 (hDGAT1; 50 μM): 97.51%

O=c1c(O)c(-c2ccc(O)c(O)c2)oc2cc(O)cc(O)c12 [Quercetin, reference compound]
Vmax (glucose oxidase (GOX); 0.1 μM): 34.68 ± 0.06 | inhibition at 0.1 µM (glucose oxidase (GOX); 0.1 μM, read-out: Inhibition rate): 2.82 ± 0.16% | Vmax (glucose oxidase (GOX); 0.3 μM): 34.66 ± 0.20 | inhibition at 0.3 µM (glucose oxidase (GOX); 0.3 μM, read-out: Inhibition rate): 2.87 ± 0.57% | Vmax (glucose oxidase (GOX); 1 μM): 33.85 ± 0.55 | inhibition at 1 µM (glucose oxidase (GOX); 1 μM, read-out: Inhibition rate): 5.12 ± 1.53% | Vmax (glucose oxidase (GOX); 3 μM): 30.21 ± 0.12 | inhibition at 3 µM (glucose oxidase (GOX); 3 μM, read-out: Inhibition rate): 15.3 ± 0.32% | Vmax (glucose oxidase (GOX); 10 μM): 26.55 ± 0.15 | inhibition at 10 µM (glucose oxidase (GOX); 10 μM, read-out: Inhibition rate): 25.6 ± 0.41% | Vmax (glucose oxidase (GOX); 30 μM): 16.54 ± 0.12 | inhibition at 30 µM (glucose oxidase (GOX); 30 μM, read-out: Inhibition rate): 53.66 ± 0.34% | Vmax (glucose oxidase (GOX); 100 μM): −1.40 ± 8.87 | inhibition at 100 µM (glucose oxidase (GOX); 100 μM, read-out: Inhibition rate): 104 ± 24.9% | IC50 (glucose oxidase (GOX); fitted by Graphpad Prism 5.0): 21 µM

CCCCCCCCCCC[C@@H](C[C@@H]1OC(=O)[C@H]1CCCCCC)OC(=O)[C@H](CC(C)C)NC=O [Olistat, reference compound]
Inhibition rate % (10 μM) against pancrelipase (porcine pancrelipase): 83.96%
